Experiments:
CtMaT1 = test: HPLC initial-rate kinetics, nonlinear regression; type: biochemical, Cistanche tubulosa; conditions: 2 mmol/L malonyl-CoA as co-substrate, 1 mmol/L DTT, 100 mmol/L potassium phosphate pH 6.0, 30 °C
MatB [1] = molecular target: T1, MatB (Arabidopsis thaliana, UniProt Q8H151); test: HPLC detection of malonyl-CoA formed; type: biochemical; conditions: 1.5 mmol/L CoA, 3 mmol/L ATP, 5 mmol/L MgCl2, 1 mmol/L DTT, potassium phosphate pH 6.0, 30 °C, 12 h
T1 sequence (Q8H151 1-608): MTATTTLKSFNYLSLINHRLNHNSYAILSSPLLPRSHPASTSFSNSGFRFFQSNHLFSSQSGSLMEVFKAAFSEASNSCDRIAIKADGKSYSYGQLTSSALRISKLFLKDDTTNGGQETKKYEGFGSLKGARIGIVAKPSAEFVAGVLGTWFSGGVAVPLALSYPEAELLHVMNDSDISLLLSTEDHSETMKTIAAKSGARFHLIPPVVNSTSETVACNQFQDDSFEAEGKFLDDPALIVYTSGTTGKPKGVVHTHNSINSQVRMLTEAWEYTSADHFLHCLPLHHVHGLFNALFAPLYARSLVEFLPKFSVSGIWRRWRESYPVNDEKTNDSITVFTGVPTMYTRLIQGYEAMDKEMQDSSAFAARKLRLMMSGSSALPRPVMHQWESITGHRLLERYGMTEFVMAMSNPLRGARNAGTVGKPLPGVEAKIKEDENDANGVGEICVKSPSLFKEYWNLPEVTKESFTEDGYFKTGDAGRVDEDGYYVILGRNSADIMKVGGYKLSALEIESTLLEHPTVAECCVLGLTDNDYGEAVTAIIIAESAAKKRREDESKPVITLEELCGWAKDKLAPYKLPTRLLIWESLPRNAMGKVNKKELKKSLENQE

MatB [2] = molecular target: T1, MatB; conditions: 1.5 mmol/L CoA, 3 mmol/L ATP, 5 mmol/L MgCl2, 1 mmol/L DTT, potassium phosphate pH 6.0, 30 °C, 12 h

| Km (CtMaT1) [µM] | Compound | also measured |
| --- | --- | --- |
| 685 ± 25.3 | OC[C@H]1O[C@@H](Oc2cc3c(O)cc(O)cc3[o+]c2-c2ccc(O)c(O)c2)[C@H](O)[C@@H](O)[C@@H]1O [compound 1, cyanidin 3-glucoside] |  |
| 757 ± 58.2 | OC[C@H]1O[C@@H](OCCc2ccc(O)cc2)[C@H](O)[C@@H](O)[C@@H]1O [compound 2, salidroside] |  |
|  | O=C(O)CC(=O)O [malonic acid] | HPLC detection of malonyl-CoA formed (MatB [1]): made directly from malonic acid in the presence of CoA, ATP, and MatB proteins |
|  | CC(C(=O)O)C(=O)O [methylmalonic acid] | HPLC detection of methylmalonyl-CoA formed (MatB [2]): MatB could also conduct the synthesis of methyl-MLC |
